The values below come from patent US12123881B2, “Rap1-Gtp, Rac1-GTP and FMS-like tyrosine kinase 3 ligand (FLT3-L) as biomarkers for early detection of sepsis” (UNM Rainforest Innovations, priority 2018, dated 2024).

Assay [1] concerns Haemophilus influenzae. The assay is described as follows: Clinical course of Patient #10 under antibiotic treatment, tracked by GTPase assay. The format is in vivo, human. An excerpt:
FIG. 4 G-Trap data readout, showing: A. Histograms of Cyto-Plex™ beads coded with discrete levels of 700 nm fluorescence beads for target GTPases. B&C. Flow cytometry histograms associated with GTPase activity in cell lysates exposed to blood plasma drawn from Patient #10 shown in FIG. 4D on day 0 (pre-infection) and 11 (post infection). D. Quantitative analysis of GTP binding to cytoplex beads in cell lysates treated with plasma drawn from Patient #10: a person was admitted after being crushed by a car. On day 2 a bacterial infection was suspected, thus a sputum culture was ordered and the patient was treated with broad-spectrum antibiotics including vancomycin and piperacillin/tazobactam. […] Patient's blood pressure trended upwards. On day 7, sputum-culture sent on day #2 was determined to be positive for Haemophilus influenzae and antibiotics were changed to 3 days of ceftriaxone (days 7-9). […] The onset of infection was sensitively detected by an increase in GTP binding to Rap1 and Rac1. […] E. Quantitative analysis of GTPase activity induced by Patient #3 plasma (see FIG. 2A-C). F. Quantitative analysis of GTPase activity induced by Patient #13 plasma. […] G Quantitative analysis of GTPase activity induced by Patient #14 plasma; a person admitted with no injuries after a low-speed car collision. […]

Assay [2] addresses T1, ChemR23 (Homo sapiens, UniProt Q99788).
T1 construct: endogenous in cells
T1 sequence (Q99788 1-373): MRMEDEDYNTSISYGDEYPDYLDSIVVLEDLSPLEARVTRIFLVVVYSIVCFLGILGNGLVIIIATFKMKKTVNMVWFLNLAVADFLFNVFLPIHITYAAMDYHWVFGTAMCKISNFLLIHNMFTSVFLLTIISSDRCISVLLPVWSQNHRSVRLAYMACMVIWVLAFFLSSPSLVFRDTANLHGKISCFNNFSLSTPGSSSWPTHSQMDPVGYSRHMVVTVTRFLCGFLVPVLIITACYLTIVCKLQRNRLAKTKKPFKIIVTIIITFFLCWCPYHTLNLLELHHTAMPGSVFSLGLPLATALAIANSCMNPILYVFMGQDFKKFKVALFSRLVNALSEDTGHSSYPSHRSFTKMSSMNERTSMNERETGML
The assay can be described thus: G-Trap measurement of Rac1-GTP in cells challenged with Patient #10's plasma, with the ChemR23 antagonist. The settings on record: Patient #10 plasma. It counts as cell-based. An excerpt: As shown in FIGS. 2-4, the inventors use flow cytometry multiplex beads that are functionalized with signaling effector molecules of target GTP bound small GTPases to determine changes in the concentration of active GTPases in the blood plasma of trauma patients before and after a clinically diagnosed infection (FIGS. 6&7). In this setting, the beads capture GTP-bound GTPases in lysates of cells that were challenged with plasma samples of study subjects and then quantitatively analyzed on a flow cytometer.^9
Pilot study Proteomic of Patient #10 and #14 plasma samples. Laser densitometer readings of duplicate patient plasma samples (#10, and #14) were computer analyzed for differential expression of proteins as previously described. Spot data showing significant differences between patient samples and controls were determined from adjusted p-values using FDR (and Bonferroni) analysis as previously described. Ten spots were selected for mass spectrometry analysis. The selection was based on the magnitude of change in expression as well as positive correlation to trends in GTPase activity. Preliminary validation assay were performed Spot #130-CPN for patient 10 and Spot #102; Angiotensinogen for Patient 14, because of their overt connection to GTPase activity profile and the immediate availability of assay tools to confirm their presence. The value proposition of the invention as a clinical decision support tool is illustrated in FIG. 6. FIG. 6A panels show the patient's vital signs, which are indeterminate. The illness history of Patient 10 is summarized in example Case #2 above caption and recapitulated in FIG. 6B. […] The rationale for testing CPN in secondary assays was based on the following. CPN is a metallocarboxypeptidase that regulates complement anaphylatoxins (C3a, C4a, and C5a). [2; 3; 4] For clarity, the expression of carboxypeptidase N (CPN) are superimposed over changes in GTP binding to Rac1 and Rap1 (FIG. 6C) for days 8-11. […] We reasoned that the plasma upregulation of CPN was due to Haemophilus influenzae associated LPS. […] [6; 7; 8] […] [5]

In assay [3] the target is T2, ChemR23 (CMKLR1) (Homo sapiens, UniProt Q99788).
T2 sequence (Q99788 1-373): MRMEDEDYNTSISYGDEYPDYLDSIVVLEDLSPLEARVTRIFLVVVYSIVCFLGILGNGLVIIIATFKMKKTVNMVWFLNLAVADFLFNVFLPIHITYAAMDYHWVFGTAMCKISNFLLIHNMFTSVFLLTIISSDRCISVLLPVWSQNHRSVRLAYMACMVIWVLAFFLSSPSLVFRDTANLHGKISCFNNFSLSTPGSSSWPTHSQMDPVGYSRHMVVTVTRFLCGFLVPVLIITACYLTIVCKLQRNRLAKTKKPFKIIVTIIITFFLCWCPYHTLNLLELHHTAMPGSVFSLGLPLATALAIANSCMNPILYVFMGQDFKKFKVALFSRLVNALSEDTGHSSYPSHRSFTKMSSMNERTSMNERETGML
To be noted: read-out: Kd, antagonist for ChemR23; cited from earlier work.

Assay [4] relates to Rap1. The assay is described as follows: LPS induced GTP loading of Rap1, GTPase activity measured in cell lysates. The format is cell-based. To be noted: Vero E cells, exposed for 30 min. From the text:
(§1) To establish a possible mechanistic link connecting GTPase activity, bacteria virulence factors and innate immune response to bacteria, we measured GTPase activity in cell lysates challenged cells with lipopolysaccharide (LPS) a Gram-negative bacterial endotoxin, which stimulates GTP binding to Rap1 in phagocytes and endothelial cells via CD14^18 (FIGS. 1A&B). […] Given the in vitro associations between Flt-3L and Rac1-GTP, we hypothesized that bacterial infection stimulates coordinate-increases in Flt-3L and Rap1-GTP. Furthermore, based on our data we hypothesized that LPS found in Gram negative bacteria, is likely to synergistically upregulate Rap1-GTP in tandem with Flt-3L which stimulates the upregulation of both Rap1-GTP and Rac-GTP. These findings were subsequently built-upon and extended to a retrospective study of longitudinal samples from trauma patients who developed hospital acquired infections. The human plasma samples were analyzed for 41 common inflammatory mediators using the 41plex HCYTMAG-60K-PX41 Cytokine kit, Human (Millipore, MA). In parallel, GTP loading of RhoA, Rac, and Rap1 was measured in cell lysates after their exposure to the plasma samples. […] We have previously disclosed a method of quantitative multiplex measurements of GTP binding to small GTPases. […]
(§2) C. […] GTPase activity was measured in cell lysates after the cells were exposed to LPS or Flt-3L for 30 min.

The test system of assay [5] is Rap1. The assay is described as follows: Flt-3L induced GTP binding to Rap1, GTPase activity measured in cell lysates. The format is cell-based. The settings on record: endothelial cells, exposed for 30 min.
Text: as §1, §2

Assay [6] concerns Rac1. The assay is described as follows: Flt-3L induced GTP binding to Rac1, GTPase activity measured in cell lysates. It counts as cell-based. The settings on record: cells exposed to Flt-3L.
Text: as §1

Consider `CO/N=C(\C(=O)N[C@@H]1C(=O)N2C(C(=O)O)=C(CSc3nc(=O)c(=O)[nH]n3C)CS[C@H]12)c1csc(N)n1` [Ceftriaxone, ceftriaxone], for which the “treatment outcome indicated by GTPase assay” value in assay [1] (Patient #10, 3 days of treatment (days 7-9), read on day 9) is given as “failure of treatment”. In addition, the clinical outcome in assay [1] (Patient #10, restarted on day 14, lasted 7 days) is “patient recovery”.

Regarding `C[N+](C)(C)CCC(=O)c1cccc2ccccc12.[I-]` [α-NETA], the “inhibition of GTPase activity” value in assay [2] (day 6) worked out at 40%; in assay [2] (day 11) it was 20%; in assay [2] (day 12), 25%. Also, the Kd in assay [3] was approximately 6 µM.

Take lipopolysaccharide [LPS]: the “GTP loading of Rap1” value in assay [4] was “induced GTP loading of Rap1”.

B1: Flt-3L: hematopoietic four helical bundle cytokine, Fms-like tyrosine kinase-3 ligand (protein, UniProt P49771 27-235, looked up)
Fms-related tyrosine kinase 3 …: TQDCSFQHSPISSDFAVKIRELSDYLLQDYPVTVASNLQDEELCGGLWRLVLAQRWMERLKTVAGSKMQGLLERVNTEIHFVTKCAFQPPPSCLRFVQTNISRLLQETSEQLVALKPWITRQNFSRCLELQCQPDSSTLPPPWSPRPLEATAPTAPQPPLLLLLLLPVGLLLLAAAWCLHWQRTRRRTPRPGEQVPPVPSPQDLLLVEH
B1: the “GTP binding to Rap1” value in assay [5] is “induced GTP binding to Rap1”. The “GTP binding to Rac1” value in assay [6] was “elicited GTP binding to Rap1 and Rac1”.

What is called Kd is the concentration at which binding is half-saturated.
